In data set [1] the test system is 60 cancer cell line panel. The conditions noted are these: US National Cancer Institute 60 cancer cell line panel; cited from earlier work.
Data set [2] relates to MM.1S (Multiple Myeloma). Nature of the data set: anticancer cell proliferation assay (WST-1). The format is cell-based. As to conditions: 72 hours. The procedure:
(§1) Bioactivity of the above-described compounds has been verified by an anticancer cell proliferation assay using the WST-1 (4-[3-(4-iodophenyl)-2-(4-nitrophenyl)-2H-5-tetrazoliol-1, 3-benzene disulfonate) colorimetric assay by Roche Life Sciences®. Anticancer activity was tested against several standard cancer cell lines including brain, breast, Kaposi sarcoma, leukemia, lung, melanoma, tenosynovial giant cell tumor, ovarian, pancreatic, colon and prostate cancer. Cells were trypsinized and plated into 96 well plates in 50 μl of media and incubated overnight. The next day approximately 18 hours after plating, 50 μl of media containing the required flavonoid-based pharmaceutical composition was added per well. Cells were plated at a density so that 72 hours post drug addition, the cells will be in log phase (500-2000 cells/well). The compounds and extracts were solubilized in Dimethyl sulfoxide (DMSO). The cells are allowed to proliferate for 72 hours 37° C. in humidified atmosphere of 5% CO2. The experiment is terminated using WST-1 (Roche®) 10 μl per well and absorbance is read at 450 nm/690 nm. The effect of drugs on growth is assessed as percent of cell viability. The IC50 values were determined from the extract dose versus control growth curves using Graphpad Prism® software. All experiments were carried out in duplicate and the mean results determined.
On the technique in general: Tetrazolium assays rely on reduction of a dye to a coloured formazan, in cell work by metabolically active cells.

Data set [3] relates to KMS-11 (Multiple myeloma). Nature of the data set: anticancer cell proliferation assay (WST-1). The class given is cell-based. The conditions noted are these: 72 hours. The procedure: as §1
The target of data set [4] is T1, FLT3(ITD) (Homo sapiens, UniProt P36888).
T1 construct: In general, full-length constructs were used for small, single domain kinases, and catalytic domain constructs for large multi-domain kinases; fused on or other part: T7 phage fusion or DNA tag for qPCR detection
The format is binding. The conditions noted are these: Table 1. How it is done:
Cannabis flavonoids and their analogs were subjected to kinase inhibition assay. The compounds were first screened at a single concentration of 10 μM in the primary assay. […] To determine the kd or IC50 values, competition binding assays were established, authenticated and executed as described previously. […] See also, Karaman et al., “A Quantitative Analysis Of Kinase Inhibitor Selectivity”, Nat. Biotechnol. […] For most assays, kinases were fused to T7 phage strains (Fabian, supra) and for the other assays, kinases were produced in HEK-293 cells after which they were tagged with DNA for quantitative PCR detection. In general, full-length constructs were used for small, single domain kinases, and catalytic domain constructs for large multi-domain kinases. […] The liganded beads were blocked with excess biotin and washed with blocking buffer (SeaBlock (Pierce), 1% BSA, 0.05% Tween 20, 1 mM DTT) to remove unbound ligand and to reduce non-specific phage binding. […] All reactions were performed in polypropylene 384-well plates in a final volume of 0.04 ml. […] The kinase concentration in the eluates was measured by quantitative PCR. An illustration of the kinase interaction process is presented below. Kd/IC50 values were determined using a standard dose response curve using the hill equation. Curves were fitted using a non-linear least square fit with the Levenberg-Marquardt algorithm.

Data set [5] has as its system MV4-11 (Leukemia). Nature of the data set: anticancer cell proliferation assay (WST-1). The class given is cell-based. The conditions noted are these: Table 3; 72 hours, WST-1; read-out: IC50 MV4-11 (Leukemia). The procedure:
as §1, with “Anticancer” for “Bioactivity of the above-described compounds has been verified by an anticancer cell proliferation assay using the WST-1 (4-[3-(4-iodophenyl)-2-(4-nitrophenyl)-2H-5-tetrazoliol-1, 3-benzene disulfonate) colorimetric assay by Roche Life Sciences®. Anticancer”

For data set [6], the system named is human pancreatic cancer xenograft CFPAC-1 cells. Nature of the data set: human pancreatic cancer xenograft CFPAC-1 in scid mice. The class given is in vivo. The conditions noted are these: CFPAC-1 xenograft. An excerpt: The results of the anticancer activity are presented in Tables 3 and 4 (above) and in FIG. 6, Hela cells shown at (A) and CMK cells at (B) and MV4-11 and MOLT-14 acute myeloid leukemia cells.

In data set [7] the target is T2, MNK2 (Homo sapiens, UniProt Q9HBH9).
T2 construct: T7 phage fusion (most assays) or DNA tag for qPCR (HEK-293-made kinases); made in house
Nature of the data set: kinase competition binding assay. The conditions noted are these: Table 1. The procedure: (§2) Cannabis flavonoids and their analogs were subjected to kinase inhibition assay. The compounds were first screened at a single concentration of 10 μM in the primary assay. […]. To determine the kd or IC50 values, competition binding assays were established, authenticated and executed as described previously. Fabian et al., “A Small Molecule-Kinase Interaction Map For Clinical Kinase Inhibitors.”, Nat Biotechnol, 23(3):329-36, Epub (2005). See also, Karaman et al., “A Quantitative Analysis Of Kinase Inhibitor Selectivity”, Nat. Biotechnol. […] For most assays, kinases were fused to T7 phage strains (Fabian, supra) and for the other assays, kinases were produced in HEK-293 cells after which they were tagged with DNA for quantitative PCR detection. In general, full-length constructs were used for small, single domain kinases, and catalytic domain constructs for large multi-domain kinases. The binding assays utilized streptavidin-coated magnetic beads treated with biotinylated small molecule ligands for 30 minutes at room temperature which generated affinity resins for the kinase assays. The liganded beads were blocked with excess biotin and washed with blocking buffer (SeaBlock (Pierce), 1% BSA, 0.05% Tween 20, 1 mM DTT) to remove unbound ligand and to reduce non-specific phage binding. […] Test compounds were prepared as 40× stocks in 100% DMSO and diluted directly into the assay (Final DMSO concentration=2.5%). All reactions were performed in polypropylene 384-well plates in a final volume of 0.04 ml. […] The beads were then re-suspended in elution buffer (1×PBS, 0.05% Tween 20, 0.5 μM non-biotinylated affinity ligand) and incubated at room temperature with shaking for 30 minutes. The kinase concentration in the eluates was measured by quantitative PCR. An illustration of the kinase interaction process is presented below. Kd/IC50 values were determined using a standard dose response curve using the hill equation. Curves were fitted using a non-linear least square fit with the Levenberg-Marquardt algorithm.

The target of data set [8] is T3, MELK (Homo sapiens, UniProt Q14680).
T3 construct: full-length constructs were used for small, single domain kinases, and catalytic domain constructs for large multi-domain kinases; T7 phage fusion (most assays) or DNA tag for qPCR (HEK-293-made kinases); made in house
Nature of the data set: kinase competition binding assay. The conditions noted are these: Table 1. How it is done:
as §2

The target in data set [9] is T4, PDGFRa (Homo sapiens, UniProt P16234).
T4 construct: catalytic domain constructs for large multi-domain kinases; T7 phage fusion (most assays) or DNA tag for qPCR (HEK-293-made kinases); made in house
Nature of the data set: kinase competition binding assay. As to conditions: Table 1. The procedure: as §2

Data set [10] concerns the target T5, TXK (Homo sapiens, UniProt P42681).
T5 construct: T7 phage fusion (most assays) or DNA tag for qPCR (HEK-293-made kinases); made in house
The experiment in a line: kinase competition binding assay. The conditions noted are these: Table 1. The procedure:
as §2

The target of data set [11] is T6, PIK4CB (Homo sapiens, UniProt Q9UBF8).
T6 construct: T7 phage fusion (most assays) or DNA tag for qPCR (HEK-293-made kinases); made in house
Nature of the data set: kinase competition binding assay. The conditions noted are these: Table 1. The procedure: as §2

Data set [12] addresses T7, JAK3 (Homo sapiens, UniProt P52333).
T7 construct: full-length constructs were used for small, single domain kinases, and catalytic domain constructs for large multi-domain kinases; T7 phage fusion (most assays) or DNA tag for qPCR (HEK-293-made kinases); made in house
Nature of the data set: kinase competition binding assay. The conditions noted are these: Table 1. The procedure: as §2

The target of data set [13] is T8, DRAK2 (Homo sapiens, UniProt O94768).
T8 construct: full-length constructs were used for small, single domain kinases, and catalytic domain constructs for large multi-domain kinases; T7 phage fusion (most assays) or DNA tag for qPCR (HEK-293-made kinases); made in house
Nature of the data set: kinase competition binding assay. The conditions noted are these: Table 1. How it is done:
as §2

Data set [14] concerns the target T9, JAK2 (Homo sapiens, UniProt O60674).
T9 construct: full-length constructs were used for small, single domain kinases, and catalytic domain constructs for large multi-domain kinases; T7 phage fusion (most assays) or DNA tag for qPCR (HEK-293-made kinases); made in house
The experiment in a line: kinase competition binding assay. The conditions noted are these: Table 1. How it is done:
as §2

Data set [15] addresses T10, PIP5K1A (Homo sapiens, UniProt Q99755).
T10 construct: T7 phage fusion (most assays) or DNA tag for qPCR (HEK-293-made kinases); made in house
Nature of the data set: kinase competition binding assay. As to conditions: Table 1. The procedure:
as §2

Data set [16] has as its target T11, BIKE (Homo sapiens, UniProt Q9NSY1).
T11 construct: full-length constructs were used for small, single domain kinases, and catalytic domain constructs for large multi-domain kinases; T7 phage fusion (most assays) or DNA tag for qPCR (HEK-293-made kinases); made in house
The experiment in a line: kinase competition binding assay. As to conditions: Table 1. How it is done:
as §2

Data set [17] has as its target T12, FLT3(D835V) (Homo sapiens, UniProt P36888, D835V).
T12 construct: full-length constructs were used for small, single domain kinases, and catalytic domain constructs for large multi-domain kinases; T7 phage fusion (most assays) or DNA tag for qPCR (HEK-293-made kinases); made in house
The experiment in a line: kinase competition binding assay. The conditions noted are these: Table 1. The procedure: as §2

Data set [18] deals with T13, SRC (Homo sapiens, UniProt P12931).
T13 construct: T7 phage fusion (most assays) or DNA tag for qPCR (HEK-293-made kinases); made in house
The experiment in a line: kinase competition binding assay. As to conditions: Table 1. How it is done: as §2

The target in data set [19] is T14, c-SRC (Homo sapiens, UniProt P12931).
T14 construct: T7 phage fusion (most assays) or DNA tag for qPCR (HEK-293-made kinases); made in house
Nature of the data set: kinase competition binding assay. As to conditions: Table 1. How it is done: as §2

The target of data set [20] is T15, PIK3CA(1800L) (Homo sapiens, UniProt P42336, I800L).
T15 construct: T7 phage fusion (most assays) or DNA tag for qPCR (HEK-293-made kinases); made in house
Nature of the data set: kinase competition binding assay. As to conditions: Table 1. How it is done:
as §2

Data set [21] addresses T16, PDGFRa(T6741) (Homo sapiens, UniProt P16234, T674I).
T16 construct: catalytic domain constructs for large multi-domain kinases; T7 phage fusion (most assays) or DNA tag for qPCR (HEK-293-made kinases); made in house
The experiment in a line: kinase competition binding assay. The conditions noted are these: Table 1. The procedure: as §2

In data set [22] the target is T17, Yes/yes1 (Homo sapiens, UniProt P07947).
T17 construct: T7 phage fusion (most assays) or DNA tag for qPCR (HEK-293-made kinases); made in house
The experiment in a line: kinase competition binding assay. The conditions noted are these: Table 1. How it is done: as §2

Data set [23] addresses T18, MEK5 (Homo sapiens, UniProt Q13163).
T18 construct: T7 phage fusion (most assays) or DNA tag for qPCR (HEK-293-made kinases); made in house
Nature of the data set: kinase competition binding assay. As to conditions: Table 1. How it is done: as §2

Data set [24] concerns the target T19, JAK1 (Homo sapiens, UniProt P23458).
T19 construct: full-length constructs were used for small, single domain kinases, and catalytic domain constructs for large multi-domain kinases; T7 phage fusion (most assays) or DNA tag for qPCR (HEK-293-made kinases); made in house
Nature of the data set: kinase competition binding assay. The conditions noted are these: Table 1. The procedure:
as §2

T5 sequence (P42681 whole entry, the tested form may be a part): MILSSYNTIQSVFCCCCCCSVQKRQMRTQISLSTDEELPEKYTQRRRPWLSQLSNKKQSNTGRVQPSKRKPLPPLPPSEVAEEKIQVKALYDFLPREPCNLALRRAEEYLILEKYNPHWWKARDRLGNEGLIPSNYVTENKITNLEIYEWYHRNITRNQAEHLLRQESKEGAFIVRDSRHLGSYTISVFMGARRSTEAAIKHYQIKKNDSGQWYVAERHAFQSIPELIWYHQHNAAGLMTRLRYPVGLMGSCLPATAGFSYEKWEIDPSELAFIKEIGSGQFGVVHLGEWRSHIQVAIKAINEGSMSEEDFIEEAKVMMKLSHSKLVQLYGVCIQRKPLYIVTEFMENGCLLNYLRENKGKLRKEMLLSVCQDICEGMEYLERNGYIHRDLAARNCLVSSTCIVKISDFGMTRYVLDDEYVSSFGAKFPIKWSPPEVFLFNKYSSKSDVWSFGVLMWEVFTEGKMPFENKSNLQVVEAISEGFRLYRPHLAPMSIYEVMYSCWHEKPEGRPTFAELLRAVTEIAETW
T8 sequence (O94768 whole entry, the tested form may be a part): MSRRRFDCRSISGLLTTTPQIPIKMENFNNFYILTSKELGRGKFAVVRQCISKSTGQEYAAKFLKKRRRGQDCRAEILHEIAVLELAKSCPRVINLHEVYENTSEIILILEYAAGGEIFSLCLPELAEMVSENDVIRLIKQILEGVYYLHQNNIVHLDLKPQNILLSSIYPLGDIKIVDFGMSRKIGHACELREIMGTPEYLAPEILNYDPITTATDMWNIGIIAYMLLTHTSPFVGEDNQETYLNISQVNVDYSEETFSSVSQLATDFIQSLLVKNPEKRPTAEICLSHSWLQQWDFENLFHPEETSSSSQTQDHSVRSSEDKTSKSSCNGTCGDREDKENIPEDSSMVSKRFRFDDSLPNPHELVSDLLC
T3 sequence (Q14680 whole entry, the tested form may be a part): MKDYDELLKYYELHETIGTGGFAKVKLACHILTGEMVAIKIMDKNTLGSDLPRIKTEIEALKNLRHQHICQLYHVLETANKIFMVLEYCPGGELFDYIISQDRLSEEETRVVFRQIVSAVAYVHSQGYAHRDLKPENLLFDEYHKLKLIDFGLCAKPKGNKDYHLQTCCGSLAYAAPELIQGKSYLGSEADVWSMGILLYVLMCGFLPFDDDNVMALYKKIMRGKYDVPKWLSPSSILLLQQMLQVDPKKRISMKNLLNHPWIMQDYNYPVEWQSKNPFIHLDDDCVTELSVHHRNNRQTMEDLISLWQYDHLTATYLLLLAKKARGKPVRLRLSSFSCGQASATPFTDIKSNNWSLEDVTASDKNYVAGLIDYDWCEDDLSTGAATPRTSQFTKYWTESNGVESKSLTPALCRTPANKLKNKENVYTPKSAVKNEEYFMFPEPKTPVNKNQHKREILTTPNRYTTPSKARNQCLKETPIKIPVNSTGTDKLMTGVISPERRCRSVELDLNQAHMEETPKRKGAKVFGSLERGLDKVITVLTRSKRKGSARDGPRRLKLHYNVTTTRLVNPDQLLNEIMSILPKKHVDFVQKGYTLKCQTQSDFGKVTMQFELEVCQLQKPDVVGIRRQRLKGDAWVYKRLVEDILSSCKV
T19 sequence (P23458 whole entry, the tested form may be a part): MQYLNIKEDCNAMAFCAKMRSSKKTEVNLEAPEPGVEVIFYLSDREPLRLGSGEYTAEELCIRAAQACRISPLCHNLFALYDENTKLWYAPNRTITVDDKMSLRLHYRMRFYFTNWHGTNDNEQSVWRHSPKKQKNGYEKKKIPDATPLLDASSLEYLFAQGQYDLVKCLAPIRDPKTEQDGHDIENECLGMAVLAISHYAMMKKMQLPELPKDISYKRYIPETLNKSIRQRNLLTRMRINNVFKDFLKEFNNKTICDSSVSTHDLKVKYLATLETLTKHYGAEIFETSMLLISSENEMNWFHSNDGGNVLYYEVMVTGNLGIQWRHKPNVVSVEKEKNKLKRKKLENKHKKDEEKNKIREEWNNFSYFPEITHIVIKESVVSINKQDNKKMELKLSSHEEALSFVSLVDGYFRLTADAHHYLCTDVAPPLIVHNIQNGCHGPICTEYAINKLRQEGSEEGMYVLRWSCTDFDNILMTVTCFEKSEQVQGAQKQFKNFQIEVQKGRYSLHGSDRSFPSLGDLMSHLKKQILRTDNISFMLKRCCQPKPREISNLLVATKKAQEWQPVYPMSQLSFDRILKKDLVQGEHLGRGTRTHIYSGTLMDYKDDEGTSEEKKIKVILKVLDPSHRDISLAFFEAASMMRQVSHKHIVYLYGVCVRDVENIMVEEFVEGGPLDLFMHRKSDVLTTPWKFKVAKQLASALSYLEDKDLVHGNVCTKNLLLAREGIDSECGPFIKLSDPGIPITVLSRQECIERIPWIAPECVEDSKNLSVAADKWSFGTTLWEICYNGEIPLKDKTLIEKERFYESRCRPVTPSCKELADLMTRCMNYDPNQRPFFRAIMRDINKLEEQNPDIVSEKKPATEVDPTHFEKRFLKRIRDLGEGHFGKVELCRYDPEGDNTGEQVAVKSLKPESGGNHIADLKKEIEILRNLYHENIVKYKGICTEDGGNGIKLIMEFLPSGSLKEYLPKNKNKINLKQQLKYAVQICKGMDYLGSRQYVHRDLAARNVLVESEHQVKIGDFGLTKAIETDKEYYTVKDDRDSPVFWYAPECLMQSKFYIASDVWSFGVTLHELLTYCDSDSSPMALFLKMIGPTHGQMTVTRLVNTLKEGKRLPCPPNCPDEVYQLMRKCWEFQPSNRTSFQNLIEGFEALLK
T15 sequence (P42336 whole entry I800L, the tested form may be a part): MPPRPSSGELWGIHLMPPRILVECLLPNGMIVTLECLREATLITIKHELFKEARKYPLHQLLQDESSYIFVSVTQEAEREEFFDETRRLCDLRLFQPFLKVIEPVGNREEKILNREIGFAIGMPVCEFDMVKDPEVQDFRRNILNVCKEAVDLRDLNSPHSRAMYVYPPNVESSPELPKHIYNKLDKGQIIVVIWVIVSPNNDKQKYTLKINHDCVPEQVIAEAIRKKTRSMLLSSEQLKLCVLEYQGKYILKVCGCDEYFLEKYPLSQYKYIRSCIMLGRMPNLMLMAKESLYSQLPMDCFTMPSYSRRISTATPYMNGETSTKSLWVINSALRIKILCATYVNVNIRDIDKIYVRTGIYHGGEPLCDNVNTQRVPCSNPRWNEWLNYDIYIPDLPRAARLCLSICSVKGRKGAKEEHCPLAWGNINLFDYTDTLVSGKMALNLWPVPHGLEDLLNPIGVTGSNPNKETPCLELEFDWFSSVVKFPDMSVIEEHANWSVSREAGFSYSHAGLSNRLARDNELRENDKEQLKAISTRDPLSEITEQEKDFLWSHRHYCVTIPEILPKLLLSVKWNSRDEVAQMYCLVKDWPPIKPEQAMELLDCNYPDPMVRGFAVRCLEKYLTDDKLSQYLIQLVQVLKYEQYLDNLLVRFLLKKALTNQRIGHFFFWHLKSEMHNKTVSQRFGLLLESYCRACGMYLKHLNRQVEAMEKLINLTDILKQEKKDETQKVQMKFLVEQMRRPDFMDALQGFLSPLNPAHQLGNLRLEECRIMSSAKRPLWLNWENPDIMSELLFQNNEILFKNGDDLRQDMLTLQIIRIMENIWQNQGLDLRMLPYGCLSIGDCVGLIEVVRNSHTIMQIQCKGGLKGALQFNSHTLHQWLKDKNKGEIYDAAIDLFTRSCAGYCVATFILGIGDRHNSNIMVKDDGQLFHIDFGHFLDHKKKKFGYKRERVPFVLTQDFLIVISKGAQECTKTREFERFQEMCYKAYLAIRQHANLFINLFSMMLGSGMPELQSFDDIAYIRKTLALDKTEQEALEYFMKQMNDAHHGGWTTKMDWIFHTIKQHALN
T6 sequence (Q9UBF8 whole entry, the tested form may be a part): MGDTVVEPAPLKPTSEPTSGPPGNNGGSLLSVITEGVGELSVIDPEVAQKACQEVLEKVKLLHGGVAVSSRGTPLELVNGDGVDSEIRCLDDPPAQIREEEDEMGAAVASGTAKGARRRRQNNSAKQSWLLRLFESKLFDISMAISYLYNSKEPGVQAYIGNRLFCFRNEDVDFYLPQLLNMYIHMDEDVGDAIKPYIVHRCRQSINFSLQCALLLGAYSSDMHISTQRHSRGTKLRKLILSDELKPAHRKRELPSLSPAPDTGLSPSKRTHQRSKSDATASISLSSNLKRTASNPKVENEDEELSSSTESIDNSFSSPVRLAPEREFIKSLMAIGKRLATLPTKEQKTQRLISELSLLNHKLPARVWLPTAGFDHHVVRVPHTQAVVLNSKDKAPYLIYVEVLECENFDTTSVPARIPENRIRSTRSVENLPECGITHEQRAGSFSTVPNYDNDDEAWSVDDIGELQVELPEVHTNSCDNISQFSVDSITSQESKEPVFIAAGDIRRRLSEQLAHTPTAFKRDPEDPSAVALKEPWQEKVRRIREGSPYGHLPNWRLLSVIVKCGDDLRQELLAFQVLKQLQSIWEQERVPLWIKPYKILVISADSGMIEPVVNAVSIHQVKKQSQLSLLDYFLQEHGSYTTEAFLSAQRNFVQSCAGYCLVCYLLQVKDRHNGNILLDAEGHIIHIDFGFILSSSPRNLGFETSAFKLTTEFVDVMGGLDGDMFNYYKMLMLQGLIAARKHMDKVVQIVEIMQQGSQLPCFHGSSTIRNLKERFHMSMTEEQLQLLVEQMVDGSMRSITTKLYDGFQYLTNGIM
T4 sequence (P16234 593-954 limits assumed): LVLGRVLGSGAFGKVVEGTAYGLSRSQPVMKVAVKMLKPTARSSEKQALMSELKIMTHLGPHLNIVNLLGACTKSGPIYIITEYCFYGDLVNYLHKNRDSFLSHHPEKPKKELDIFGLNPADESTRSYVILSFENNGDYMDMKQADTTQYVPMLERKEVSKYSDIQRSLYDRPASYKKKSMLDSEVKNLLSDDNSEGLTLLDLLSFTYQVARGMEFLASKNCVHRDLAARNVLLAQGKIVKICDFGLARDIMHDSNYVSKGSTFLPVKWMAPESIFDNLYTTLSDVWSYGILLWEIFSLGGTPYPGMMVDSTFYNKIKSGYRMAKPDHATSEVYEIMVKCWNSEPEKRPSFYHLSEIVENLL
T16 sequence (P16234 593-954 T674I limits assumed): as the sequence (P16234 593-954 limits assumed) above, with T82I counted along it

Consider `COc1cc(-c2cc(=O)c3c(O)c(CC=C(C)C)c(O)cc3o2)ccc1O` [cannflavin B], for which the “cytotoxicity against cancer cells” value in data set [1] is “not cytotoxic”.

As for `COc1cc(-c2cc(=O)c3c(O)cc(O)c(CC=C(C)C)c3o2)ccc1O` [FBL-03G, Caflanone], the IC50 in data set [2] came to 950 nM; in [3], 64.7 nM; in data set [4] it was 38.2 nM; in data set [5], 38.6 nM; in data set [7] it was 549 nM; in data set [8] it was 88.9 nM. The IC50 in data set [9] was 698 nM; in data set [10] it was 164 nM; in data set [11], 136 nM; in data set [12], 5.58 nM; in [13], 1400 nM; in data set [14], 1850 nM. The IC50 in data set [15] is 320 nM; in data set [16], 81 nM; in [17] it was 12.5 nM; in data set [18], 1700 nM; in data set [19], 1100 nM; in data set [20] it was 125 nM. Besides, the IC50 in [21] was 1670 nM; in data set [22] it was 294 nM; in data set [23] it was 190 nM; in data set [24], 644 nM. In data set [6], the “inhibition of tumor compared to the control” value was “significant inhibition of tumor”.

On to `COc1cc(-c2cc(=O)c3c(O)c(CC=C(C)C)c(O)cc3o2)ccc1O` [FBL-03B], for which, in data set [6], the “inhibition of tumor compared to the control” value is given as “significant inhibition of tumor”.

Broadly, the IC50 is the concentration needed to halve the response being measured.

The values above are taken from US20210121437A1, “[…] AGENTS […] FLAVONOID DERIVATIVES TARGETING KINASES, SIRTUINS AND ONCOGENIC AGENTS FOR THE TREATMENT OF MULTIPLE MYELOMA, LYMPHOMA, AND […]” (priority 2015, published 2021).
